In general, IC50 refers to the concentration at which inhibition is half-maximal.

The text below walks through data of US12441725B2, “ISO-citrate dehydrogenase (IDH) inhibitor” (ZHEJIANG METON PHARMACEUTICAL CO., LTD, priority 2019, dated 2025).

Assay [1] concerns the target T1, IDH (endogenous IDH1 R132C) in HT1080 cell (Homo sapiens, UniProt O75874, R132C).
T1 construct: which harbor endogenous heterozygous IDH1 R132C and R132H mutation respectively and accumulate D-2-HG
Description: Cell-based assay for IDH inhibition (decrease of D-2-HG) in HT1080 cells. The note with it: human fibrosarcoma cell line HT1080, 16 hours treatment, D-2-HG by LC-MS, in triplet. From the text: The present disclosure also provides a cell-based method for assaying IDH inhibition and selectivity of the compounds in human fibrosarcoma cell line HT1080 and cholangiocarcinoma cell line HCCC 9810, which harbor endogenous heterozygous IDH1 R132C and R132H mutation respectively and accumulate D-2-HG. Tumor -derived IDH mutant lost its normal activity of producing α-KG, and gained a new activity of producing D-2-HG. D-2-HG is a metabolite specifically elevated in tumor cells expressing mutant IDH1 or IDH2 proteins. When treating such mutant IDH-expressing tumor cells with an effective IDH inhibitor, the synthesis of D-2-HG is blocked, and D-2-HG concentration is decreased by the oxidation reaction catalyzed by the endogenous D-2-HG dehydrogenase.
To perform a cell-based IDH inhibition assay, HT1080 and HCCC 9810 cells (or other cell lines harboring different IDH mutations) are cultured in DMEM supplemented with 10% FBS. The cells are treated with compounds of present disclosure at various different concentrations. 16 hours after the treatment, culture medium supernatants are removed and cell metabolites are extracted by 40% methanol and 40% acetonitrile in water (pre-chilled under −80° C.) at 4° C. for 1 hour. The extract supernatants are collected and cell debris are removed via high speed centrifugation. The resulting metabolite extracts are analyzed on an Agilent LC-MS system (model: 1290-6470) for 2-HG and glutamate concentration. A HILIC-Z column (2.1 mm×100 mm, […]) is employed on HPLC. Mobile phase A is 15 mM CH3COONH4 and 0.3% NH3·H2O in water. Mobile phase B is 15 mM CH3COONH4 and 0.3% NH3·H2O in 90% MeCN/10% H2O solvent. An 19% solvent A and 81% solvent B isocratic gradient method is used at a flow rate of 0.3 ml/min. D-2-HG is ionized under negative ion spray mode and detected through the multiple-reaction monitoring of a mass transition pair at m/z=147.0/128.9 and 147.0/85.1. Glutamate is ionized under ion spray mode and detected on negative polarity multiple-reaction monitoring of a mass transition pair at m/z=146/102 and 146/128 and its level is used to normalize 2-HG concentration. The activity of cellular mutant IDH proteins in the presence of each test compound at different concentrations can be represented by relative D-2-HG concentration to negative control samples (i.e., cells are treated with DMSO only), and the IC50 value could be determined to evaluate the inhibition and selectivity of each test compound on the IDH enzymatic activity.
The IDH inhibition activity of the compounds were assessed in human fibrosarcoma cell line HIT1080 according to Test 3 of the Biological Assay section. The test for IDH inhibition of each compound was carried out in triplet. As used in Table 6, “A” refers to an IDH inhibitory activity with an IC50<0.1 μM; “B” refers to an IDH inhibitory activity with an IC50 from 0.1 μM to 0.5 μM; “C” refers to an IDH inhibitory activity with an IC50 from 0.5 μM to 1 μM; “D” refers to an IDH inhibitory activity with an IC50>1 μM.

The target of another assay is T2, IDH1 R132H (Homo sapiens, UniProt O75874, R132H).
T2 construct: 6xHis
Description: Biochemical assay for IDH inhibition (NADPH fluorescence), mutant IDH1 R132H. As to conditions: 50 nM IDH1-R132H, 1 hour pre-incubation, in triplet. An excerpt:
(§1) The present disclosure provides a biochemical assay method for detecting the IDH inhibition and selectivity of the compounds by detecting IDH enzyme activity directly.
(§2) Wild-type IDH enzymes convert NADP^+ to NADPH when catalyzing the α-KG producing reaction. Mutant IDH enzymes convert NADPH to NADP^+ when catalyzing the D-2-HG producing reaction. So, the activity of wild-type and mutant IDH1/2 could be measured by monitoring NADPH level change as NADPH is fluorescent (Excitation 340 nm, Emission 460 nm). By monitoring the change of NADPH level in the reaction, the enzyme activity could be determined rapidly and efficiently and IC50 of a compound could also be assayed.
(§3) The test compounds are prepared into 50 mM stock solutions in DMSO and stored at −20° C. Each test compound stock is further diluted to obtain a 100× stock solution at a concentration of 400 μM, 200 μM, 100 μM, 50 μM, 25 μM, 12.5 μM, 6.25 μM and 3.125 μM, respectively, for the final use on the day of test (the concentration range of 100× stock solutions might be adjusted to cover the estimated IC50 of a specific test compound).
(§4) Inhibition of Mutant IDH1 (R132H or R132C):
(§5) To assay the enzymatic activity of mutant IDH1 proteins, 25 nM IDH1-R132C or 50 nM IDH1-R132H protein solutions are prepared in 20 mM Tris-HCl pH7.5, 150 mM NaCl, 10 mM MgCl2, 1 mM DTT, 0.05 mg/ml BSA and 1.33 mM α-KG. 148 μL 25 nM IDH1-R132C or 50 nM IDH1-R132H protein solutions are mixed with 2 μL DMSO (vehicle control for test compounds) or an above-mentioned 100× stock solution of a test compound and incubated for 1 hour at room temperature. Extra reactions containing 148 μL no-enzyme solution (20 mM Tris-HCl pH7.5, 150 mM NaCl, 10 mM MgCl2, 1 mM DTT, 0.05 mg/ml BSA and 1.33 mM α-KG) and 2 μL DMSO are also set up as background controls. Then each reaction is initiated by adding 50 μL 80 μM NADPH solution prepared in 20 mM Tris-HCl pH7.5, 150 mM NaCl, 10 mM MgCl2, 1 mM DTT and 0.05 mg/ml BSA. BioTek Synergy H1 Microplate reader (BioTek Instruments Inc., Winooski, U.S.) is employed to monitor the NADPH fluorescence (Excitation 340 nm, Emission 460 nm) every 42 seconds for 15 minutes. NADPH change rate is determined according to the linear phase of the fluorescence-time curve and results from the background control reactions are used as background subtraction to calculate the net NADPH change rates of other reactions. The net NADPH change rates from the vehicle control reactions are used as 100% enzymatic activity and thus the relative enzymatic activity of reactions with test compounds added could be determined. Then a dose-response curve is drawn for each test compound and the corresponding IC50 is calculated. The IC50 value is used to evaluate the inhibition and selectivity of each test compound on the IDH enzymatic activity.
(§6) The IDH inhibition activity of the compounds were assessed according to Test 2 of the Biological Assay section. The test for mutant IDH1 R132H and IDH1 R132C inhibition of each compound was carried out in triplet. As used in Table 5, “A” refers to an inhibitory activity against IDH1 R132H or IDH1 R132C with an IC50<0.1 μM; “B” refers to an inhibitory activity against IDH1 R132H or IDH1 R132C with an IC50 from 0.1 μM to 0.5 μM; “C” refers to an inhibitory activity against IDH1 R132H or IDH1 R132C with an IC50 from 0.5 μM to 1 μM; “D” refers to an inhibitory activity against IDH1 R132H or IDH1 R132C with an IC50>1 μM.

Another assay deals with T3, IDH1 R132C (Homo sapiens, UniProt O75874, R132C).
T3 construct: 6xHis
Description: Biochemical assay for IDH inhibition (NADPH fluorescence), mutant IDH1 R132C. The note with it: 25 nM IDH1-R132C, 1 hour pre-incubation, in triplet.
Source text: as §1, §2, §3, §4, §5, §6

Structures are written as SMILES.

T2 sequence (O75874 whole entry R132H): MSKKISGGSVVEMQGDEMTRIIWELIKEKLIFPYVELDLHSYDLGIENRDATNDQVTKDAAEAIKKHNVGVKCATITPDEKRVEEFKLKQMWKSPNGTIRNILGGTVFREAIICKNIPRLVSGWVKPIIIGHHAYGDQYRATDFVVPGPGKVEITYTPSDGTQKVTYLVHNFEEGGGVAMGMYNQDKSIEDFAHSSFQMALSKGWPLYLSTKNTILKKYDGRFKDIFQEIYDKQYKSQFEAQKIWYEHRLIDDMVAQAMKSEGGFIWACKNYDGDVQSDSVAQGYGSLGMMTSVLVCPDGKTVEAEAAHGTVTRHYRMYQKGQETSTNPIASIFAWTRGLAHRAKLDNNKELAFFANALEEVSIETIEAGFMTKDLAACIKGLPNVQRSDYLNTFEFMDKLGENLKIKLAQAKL
T1 sequence (O75874 2-414 R132C): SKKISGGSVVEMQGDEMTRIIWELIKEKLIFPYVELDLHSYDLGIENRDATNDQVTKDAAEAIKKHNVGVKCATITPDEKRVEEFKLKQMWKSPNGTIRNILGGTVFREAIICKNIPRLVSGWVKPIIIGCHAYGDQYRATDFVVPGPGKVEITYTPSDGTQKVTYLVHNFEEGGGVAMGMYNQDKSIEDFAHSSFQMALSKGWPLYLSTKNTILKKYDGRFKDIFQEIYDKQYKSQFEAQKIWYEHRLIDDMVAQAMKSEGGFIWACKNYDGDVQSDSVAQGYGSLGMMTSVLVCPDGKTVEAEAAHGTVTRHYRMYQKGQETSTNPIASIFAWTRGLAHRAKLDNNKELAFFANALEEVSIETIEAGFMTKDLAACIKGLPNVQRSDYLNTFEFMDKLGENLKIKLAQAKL
T3 sequence (O75874 whole entry R132C): as the sequence (O75874 whole entry R132H) above, with H132C counted along it

Consider `CCN1Cc2c(ccnc2N[C@@H](C)c2cc(F)c(O[C@H]3C[C@@H](C)CC(C)(C)C3)cc2F)C1=O` [Compound 24, 4-(((S)-1-(2,5-difluoro-4-(((1S,5S)-3,3,5-trimethylcyclohexyl)oxy)phenyl)ethyl)amino)-2-ethyl-2,3-dihydro-1H-pyrrolo[3,4-c]pyridin-1-one], for which the concentration for half-maximal inhibition (IC50) (in assay [1]; at IDH1 R132H; at IDH1 R132C) was below 100 nM in each case.

As to `CCN1Cc2c(ccnc2N[C@@H](C)c2ccc(Oc3ccnc(C(C)(C)C)c3)c(F)c2)C1=O` [Compound 25, (S)-4-((1-(4-((2-(tert-butyl)pyridin-4-yl)oxy)-3-fluorophenyl)ethyl)amino)-2-ethyl-2,3-dihydro-1H-pyrrolo[3,4-c]pyridin-1-one], the IC50 in assay [1] lay within 500 to 1000 nM; at IDH1 R132H, 100 to 500 nM; on IDH1 R132C, 100 to 500 nM.

With `CCN1Cc2c(ccnc2N[C@@H](C)c2ccc(Oc3ccnc(C(F)(F)F)c3)c(F)c2)C1=O` [Compound 26, (S)-2-ethyl-4-((1-(3-fluoro-4-((2-(trifluoromethyl)pyridin-4-yl)oxy)phenyl)ethyl)amino)-2,3-dihydro-1H-pyrrolo[3,4-c]pyridin-1-one], the IC50 (in assay [1]; at IDH1 R132H; at IDH1 R132C) was above 1000 nM in each case.

Take `CCN1Cc2c(ccnc2N[C@@H](C)c2ccc(OC3CCC(F)(F)C3)c(F)c2)C1=O` (stereo partly drawn) [Compound 27, 4-(((1S)-1-(4-((3,3-difluorocyclopentyl)oxy)-3-fluorophenyl)ethyl)amino)-2-ethyl-2,3-dihydro-1H-pyrrolo[3,4-c]pyridin-1-one]: the IC50 (in assay [1]; on IDH1 R132H; at IDH1 R132C) was above 1000 nM in each case.

Turning to `CCN1Cc2c(ccnc2N[C@@H](C)c2ccc(OCC3CNC3)c(F)c2)C1=O` [Compound 28, (S)-4-((1-(4-(azetidin-3-ylmethoxy)-3-fluorophenyl)ethyl)amino)-2-ethyl-2,3-dihydro-1H-pyrrolo[3,4-c]pyridin-1-one], the half-inhibitory concentration (IC50) (in assay [1]; on IDH1 R132H; at IDH1 R132C) was above 1000 nM in each case.

Take `CCN1Cc2c(ccnc2N[C@@H](C)c2ccc(Oc3ccc4c(c3)CCN4C)c(F)c2)C1=O` [Compound 29, (S)-2-ethyl-4-((1-(3-fluoro-4-((1-methylindolin-5-yl)oxy)phenyl)ethyl)amino)-2,3-dihydro-1H-pyrrolo[3,4-c]pyridin-1-one]: the IC50 in assay [1] is above 1000 nM; on IDH1 R132H it was 100 to 500 nM; at IDH1 R132C, 500 to 1000 nM.

For the compound `CCN1Cc2c(ccnc2N[C@@H](C)c2ccc(Oc3ccnc4ccccc34)c(F)c2)C1=O` [Compound 30, (S)-2-ethyl-4-((1-(3-fluoro-4-(quinolin-4-yloxy)phenyl)ethyl)amino)-2,3-dihydro-1H-pyrrolo[3,4-c]pyridin-1-one], the IC50 was above 1000 nM in assay [1], 500 to 1000 nM on IDH1 R132H and above 1000 nM at IDH1 R132C.

Turning to `CCN1Cc2c(ccnc2N[C@@H](C)c2ccc(N(C)c3ccccc3)c(F)c2)C1=O` [Compound 31, (S)-2-ethyl-4-((1-(3-fluoro-4-(methyl(phenyl)amino)phenyl)ethyl)amino)-2,3-dihydro-1H-pyrrolo[3,4-c]pyridin-1-one], the IC50 (in assay [1]; on IDH1 R132H; at IDH1 R132C) was above 1000 nM in each case.

`CCN1Cc2c(ccnc2N[C@@H](C)c2ccc(Nc3ccccc3)c(F)c2)C1=O` [Compound 32, (S)-2-ethyl-4-((1-(3-fluoro-4-(phenylamino)phenyl)ethyl)amino)-2,3-dihydro-1H-pyrrolo[3,4-c]pyridin-1-one]: the IC50 (in assay [1]; on IDH1 R132H; on IDH1 R132C) was above 1000 nM each time.

As for `CCN1Cc2c(ccnc2N[C@@H](C)c2ccc(-c3ccc(C(F)(F)F)cc3)c(F)c2)C1=O` [Compound 33, (S)-2-ethyl-4-((1-(2-fluoro-4′-(trifluoromethyl)-[1,1′-biphenyl]-4-yl)ethyl)amino)-2,3-dihydro-1H-pyrrolo[3,4-c]pyridin-1-one], the IC50 in assay [1] is above 1000 nM; at IDH1 R132H, 500 to 1000 nM; at IDH1 R132C, above 1000 nM.

`CCN1Cc2c(ccnc2N[C@@H](C)c2ccc(-c3ccnc(C(F)(F)F)c3)c(F)c2)C1=O` [Compound 34, (S)-2-ethyl-4-((1-(3-fluoro-4-(2-(trifluoromethyl)pyridin-4-yl)phenyl)ethyl)amino)-2,3-dihydro-1H-pyrrolo[3,4-c]pyridin-1-one]: the IC50 (in assay [1]; on IDH1 R132H; on IDH1 R132C) was above 1000 nM each time.

As for `CCN1Cc2c(ccnc2N[C@@H](C)c2ccc(C3=CCN(C(C)(C)C)CC3)c(F)c2)C1=O` [Compound 35, (S)-4-((1-(4-(1-(tert-butyl)-1,2,3,6-tetrahydropyridin-4-yl)-3-fluorophenyl)ethyl)amino)-2-ethyl-2,3-dihydro-1H-pyrrolo[3,4-c]pyridin-1-one], the IC50 (in assay [1]; on IDH1 R132H; on IDH1 R132C) was above 1000 nM each time.
